# Measurements as given in patent US12516292B2, “Methods of producing modified natural killer cells and methods of use” (The United States of America, as represented by the …, priority 2016, dated 2026).
# Tested on: human NK cells from PBMC
# Experiment: Fold expansion and overall yield of transduced NK cells in culture
# Type: cell-based
# Conditions: BX795 (1.5 μM) during transduction combined with pre-stimulation with SMI-LCL feeder cells (FIG. 28A, 28B)
structure (smiles),measurement,value
O=C(NCCCNc1nc(Nc2cccc(NC(=O)N3CCCC3)c2)ncc1I)c1cccs1 [BX795],subsequent proliferation of lentiviral transduced ex-vivo expanded human NK cells,increased subsequent proliferation
